# Counter-ions that a name gives are not always drawn.
# Key:
# [1] = In vitro measurements of two-photon uncaging and fluorescence cross-sections; type: physicochemical; settings: pH 7.2
# Protocol: Measurements of cross-sections for two-photon uncaging were carried out in microcuvettes with cylindrical cavities having a 1 cm path length and 20 μL total volume (Type 26F, Starna). Femtosecond infrared pulses from a mode-locked titanium-sapphire laser (Spectra-Physics TSUNAMI, pumped by a Spectra-Physics MILLENNIUM) were aimed along the axis of the sample chamber and focused in its center with a 25 mm focal length lens (06LXP003/076, Melles Griot, Irvine, Calif.) optimized for infrared lasers. The pulse parameters were estimated by replacing the caged compound by a solution of fluorescein, a reference compound of known fluorescence quantum yield Qf2 (0.9) and two-photon absorbance cross-section δaF (30 and 38 GM at 740 and 800 nm respectively). The time-averaged fluorescence <F(t)>collected by the detector is given by equation (1)
# <F(t)>=0.5φQf2δaFCF<I0^2(t)>∫S^2(r)dV (1)
# where φ is the collection efficiency of the detector, CF is the concentration of fluorescein, <I0^2(t)> is the mean squared light intensity, S(r) is a unitless spatial distribution function, and the integral is over the volume of the microcuvette. The fluorescence emitted at right angles to the laser beam was measured through a 535 nm bandpass filter in front of a silicon photodiode radiometer (IL1700, International Light). The collection efficiency φ was estimated as Ay/(4πR^2n^2), where A is the area of the detector (0.38 cm^2), y is the fraction of the integrated emission spectrum transmitted by the interference filter (0.377), measured separately in a spectrofluorometer, R is the distance from the center of the cuvette to the detector (3.83 cm), and n is the refractive index of water (1.333). For photolysis of a caged compound or substrate, the number NP of molecules of product formed per unit time is (eq. 2):
# NP=0.5Qu2δaSCS<I0^2(t)>∫S^2(r)dV (2)
# where Qu2, δaS, and CS are the quantum efficiency for two-photon uncaging, absorbance cross-section, and concentration of the substrate, respectively. NP was measured by HPLC sampling of the microcuvette as for the one-photon photolysis. The uncaging action cross-section δu2 (≡Qu2δaS) can therefore be estimated by (eq. 3): [formula]
# Similarly, when the substrate is also fluorescent, its two-photon fluorescence action cross-section δf2S (≡Qf2SδaS) can be estimated as (eq. 4): [formula]
# Here the subscripts S and F distinguish values for the substrate and for the fluorescein reference. If one assumes that one- and two-photon quantum efficiencies are the same, then δu2/Qu1 and δf2S/Qf1S should both equal δaS. In fact, the former values are typically about twice the latter. All of them are directly proportional to the assumed value of Qf2 for fluorescein.
# [2] = One-photon photolysis quantum efficiency (UV irradiation, HPLC analysis); type: physicochemical
# Protocol: (§1) The electronic absorption and emission properties of the compounds were measured and the stability of the compounds toward hydrolysis in the dark was tested. Stability in the dark can be used to help identify photolabile protecting groups that can be used in a variety of different conditions. Specifically, the quantum efficiencies for one-photon excitation and rates of hydrolysis in the dark were determined.
# […] The duration of each irradiation period was controlled by an electronic shutter. Between each irradiation, a small aliquot (10 μL) of the solution was removed for analysis by reversed phase HPLC with a Betabasic-18 column eluted with a isocratic mixture of 60% acetonitrile and water containing 0.1% trifluoracetic acid at a flow rate of 0.8 mL/min, using absorbance detection at 325 nm. […] […] Quantum efficiencies were calculated as (Iσt90%)^−1, where I is the irradiation intensity in einsteins (cm^−2s^−1), σ is the decadic extinction coefficient in cm^2mol^−1 (10^3 times ε, the usual extinction coefficient in M^−1cm^−1), and t90% is the irradiation time in seconds for 90% conversion to product. […] Dark hydrolysis rates were measured similarly except without illumination.
# [3] = Electronic absorption and emission properties; type: physicochemical; settings: for λmax Wavelength of peak absorbance: pH 7.2; for ε Molar absorptivity at absorbance peak: pH 7.2, at absorbance peak
# Protocol: Generally, chemicals and solvents were used directly as received unless otherwise noted. Acetonitrile, chloroform and dichloromethane were dried over 4A molecular sieves. Proton magnetic resonance spectra (^1H NMR) were recorded on a Gemini 200 MHz spectrometer (Varian; Palo Alto, Calif.) and reported in ppm (δ) downfield from tetramethylsilane with residual solvent peaks as the internal standards. Ultraviolet spectra were recorded on a Cary 3E UV-Visible spectrophotometer (Varian, Palo Alto, Calif., USA). Fluorescence spectra were recorded on a Fluorolog spectrofluorometer (SPEX; Edison, N.J., USA). Mass spectra were recorded on a electrospray mass spectrometer (5989B, Hewlett-Packard; Palo Alto, Calif., USA). Thin layer chromatography (TLC) and column chromatography were performed on precoated silica gel 60F-254 plates and 230-400 mesh silica gel 60 respectively (EM Separations; Gibbstown, N.J., USA). All manipulations of compounds sensitive to near ultraviolet light were performed under an orange safety lamp.
# as §1
# [4] = Hydrolysis in the dark (dark stability); type: physicochemical; settings: buffered solution, read-out: t0.5 Half-life for hydrolysis in the dark (converted)
# Protocol: as §1
# The photolysis quantum efficiencies for one-photon excitation were determined by irradiating a buffered solution of the substrate with 365 nm ultraviolet light from a B-100 mercury lamp (Spectronics Corp., Westbury, N.Y.). The duration of each irradiation period was controlled by an electronic shutter. Between each irradiation, a small aliquot (10 μL) of the solution was removed for analysis by reversed phase HPLC with a Betabasic-18 column eluted with a isocratic mixture of 60% acetonitrile and water containing 0.1% trifluoracetic acid at a flow rate of 0.8 mL/min, using absorbance detection at 325 nm. Optical densities at 365 nm were maintained near 0.1 so that inner-filtering of the irradiation could be neglected. […] Quantum efficiencies were calculated as (Iσt90%)^−1, where I is the irradiation intensity in einsteins (cm^−2s^−1), σ is the decadic extinction coefficient in cm^2mol^−1 (10^3 times ε, the usual extinction coefficient in M^−1cm^−1), and t90% is the irradiation time in seconds for 90% conversion to product. The total UV intensity, I, was measured by chemical actinometry with 6 mM potassium ferrioxalate in the same setup. Dark hydrolysis rates were measured similarly except without illumination.
# rat cortical neurons = assay: One-photon UV uncaging of caged glutamate on brain slices, neuronal responses; type: cell-based; settings: one-photon UV uncaging at 365 nm, 10 mW, average
# Protocol: The photolabile protecting groups can be uncaged by one-photon or two-photon photolysis. One-photon ultraviolet uncaging experiments were carried out on brain slices. In particular, compound 7 was used to deliver glutamate to rat cortical neurons. One-photon UV uncaging of caged glutamate compound at 365 nm released the glutamate. Neuronal responses were measured after directly stimulating cells as described in Sawatari and Callaway, Nature 380:442-446 (1996). The cells were exposed to compound 7 (Bhc-Glu) or γ-(α-carboxy-2-nitrobenzyl)glutamate, trifluoroacetate salt (compound 1, CNB-glutamate). The one-photon uncaging was carried out as described in FIG. 1 depicts the lower power needed to uncage compound 7 (Bhc-Glu) in the neuron sample in comparison to compound 1 (alpha-carboxy nitrobenzyl-caged glutamate, CNB-Glu). At 10 mW the compound 7-stimulated neurons respond, on average, at amplitudes 80% of their maximum, while compound 1-stimulated neurons are responding at less than 20% of their maximum amplitudes.
# [5] = Mechanism of photolysis (triplet state lifetime); type: physicochemical
# Text: The halogenated coumarin derivatives have good dark stability, and high one-photon and two-photon uncaging efficiencies. Without being bound to any particular theory, halogenation of the coumarin may have increased the two-photon cross-sections by lowering the pKa of the chromophore below physiological pH and promoting formation of the more strongly absorbing anion. Also, the heavy atoms may promote intersystem crossing to the triplet, which is believed to be the photochemically reactive state. […] The mechanism of photolysis of compound 7 and compound 23 indicate that the solvolysis occurs via the triplet state with a lifetime of about 1 μs. […] Although compound 6 had the highest cross-section, its photolysis was complicated by multiple secondary photoproducts. The monobromo compound (compound 5) was much more tractable and easily formed caged compounds.
# [6] = 515 nm rather than 365 nm (footnote g)
δf (740 nm) fluorescence action cross-section for two-photon excitation [1],δu (740 nm) uncaging action cross-section for two-photon excitation [1],δf (800 nm) fluorescence action cross-section for two-photon excitation [1],δu (800 nm) uncaging action cross-section for two-photon excitation [1],Qu1 Quantum efficiency for uncaging with one-photon excitation at 365 nm [2],εQu1 One-photon action cross section (product of molar absorptivity and photolysis quantum yield) at 365 nm [2] [M⁻¹ cm⁻¹],Qf1 Quantum efficiency for fluorescence with one-photon excitation [3],λem [3] [nm],ε Molar Absorptivity at 365 nm [3],ε Molar Absorptivity at 400 nm [3],λmax Wavelength of peak absorbance [3] [nm],ε Molar absorptivity at absorbance peak [3],half-life [4] [h],"Qu1 Quantum efficiency for uncaging with one-photon excitation (measured at 515 nm) [2, 6]","εQu1 One-photon action cross section (ε and Qu1 measured at 515 nm) [2, 6]","ε Molar Absorptivity (measured at 515 nm) [3, 6]",SMILES,"Neuron response amplitude, percent of maximum amplitude (rat cortical neurons)",Lifetime of triplet state through which solvolysis occurs [5]
–,0.89 ± 10^−50 cm^4s/photon,–,0.42 ± 10^−50 cm^4s/photon,0.019,364,–,–,"19,200 M^−1cm^−1","7,560 M^−1cm^−1",369,"19,550 M^−1cm^−1",–,–,–,–,"N[C@@H](CCC(=O)OCc1cc(=O)oc2cc(O)c(Br)cc12)C(=O)O [Compound 8, γ-(6-Bromo-7-hydroxycoumarin-4-yl)methyl glutamate]",–,–
4.24 ± 10^−50 cm^4s/photon,1.99 ± 10^−50 cm^4s/photon,1.41 ± 10^−50 cm^4s/photon,0.42 ± 10^−50 cm^4s/photon,0.037,548,0.22,474,"14,800 M^−1cm^−1","5,000 M^−1cm^−1",370,"15,000 M^−1cm^−1",183,–,–,–,"CC(=O)OCc1cc(=O)oc2cc(O)c(Br)cc12 [Compound 5, 6-Bromo-7-hydroxycoumarin-4-ylmethyl acetate]",–,–
–,0.96 ± 10^−50 cm^4s/photon,–,3.1 ± 10^−50 cm^4s/photon,0.065,630,0.16,498,"9,700 M^−1cm^−1","15,700 M^−1cm^−1",397,"15,900 M^−1cm^−1",218,–,–,–,"CC(=O)OCc1c(Br)c(=O)oc2c(Br)c(O)c(Br)cc12 [Compound 6, 3,6,8-Tribromo-7-hydroxycoumarin-4-ylmethyl acetate]",–,–
–,1.6 10^−50 cm^4s/photon,68 10^−50 cm^4s/photon,2.6 10^−50 cm^4s/photon,–,–,–,538,–,–,–,–,–,0.038,"1,565 M^−1cm^−1","41,200 M^−1cm^−1",O=c1ccc2c(CCl)c3ccc(O)cc3oc-2c1 [Compound 9],–,–

# The next lines start with the compound.
SMILES,δf (740 nm) fluorescence action cross-section for two-photon excitation [1],δu (740 nm) uncaging action cross-section for two-photon excitation [1],δf (800 nm) fluorescence action cross-section for two-photon excitation [1],δu (800 nm) uncaging action cross-section for two-photon excitation [1],Qu1 Quantum efficiency for uncaging with one-photon excitation at 365 nm [2],εQu1 One-photon action cross section (product of molar absorptivity and photolysis quantum yield) at 365 nm [2] [M⁻¹ cm⁻¹],Qf1 Quantum efficiency for fluorescence with one-photon excitation [3],λem [3] [nm],ε Molar Absorptivity at 365 nm [3],ε Molar Absorptivity at 400 nm [3],λmax Wavelength of peak absorbance [3] [nm],ε Molar absorptivity at absorbance peak [3],half-life [4] [h],"Qu1 Quantum efficiency for uncaging with one-photon excitation (measured at 515 nm) [2, 6]","εQu1 One-photon action cross section (ε and Qu1 measured at 515 nm) [2, 6]","ε Molar Absorptivity (measured at 515 nm) [3, 6]","Neuron response amplitude, percent of maximum amplitude (rat cortical neurons)",Lifetime of triplet state through which solvolysis occurs [5]
"CC(=O)OCc1cc(=O)oc2cc(O)c(Cl)cc12 [Compound 4, 6-Chloro-7-hydroxycoumarin-4-ylmethyl acetate]",9.68 ± 10^−50 cm^4s/photon,1.07 ± 10^−50 cm^4s/photon,3.22 ± 10^−50 cm^4s/photon,0.34 ± 10^−50 cm^4s/photon,0.019,302,0.37,474,"15,900 M^−1cm^−1","5,000 M^−1cm^−1",370,"16,000 M^−1cm^−1",228,–,–,–,–,–
"COc1cc(COC(=O)CCC(N)C(=O)O)c([N+](=O)[O-])cc1OC (stereo not drawn) [Compound 2, reference compound]",–,–,–,–,0.004,29,–,–,"7,300 M^−1cm^−1","1,570 M^−1cm^−1",345,"8,860 M^−1cm^−1",–,–,–,–,–,–
"NC(CCC(=O)OC(C(=O)O)c1ccccc1[N+](=O)[O-])C(=O)O (stereo not drawn) [Compound 1, γ-(α-carboxy-2-nitrobenzyl)glutamate, trifluoroacetate salt, reference compound]",–,–,–,–,0.14,25,–,–,180 M⁻¹ cm⁻¹,–,–,–,–,–,–,–,less than 20%,–
"CCOP(=O)(OCC)OCc1cc(=O)oc2cc(O)c(Br)cc12 [Compound 23, 6-Bromo-7-hydroxycoumarin-4-ylmethyl diethylphosphate]",–,–,–,–,–,–,–,–,–,–,–,–,–,–,–,–,–,about 1 μs

# Source: patent US6472541B2, “Protecting groups with increased photosensitivities” (The Regents of the University of California, priority 1998, dated 2002)
